Data published in ChEMBL document CHEMBL4266054, “Kinase Inhibitors for Treatment of Cancer and Inflammation” (ACS Med Chem Lett, 2018).

Experiments:
[1] = target: T1, Inhibitor of nuclear factor kappa-B kinase subunit epsilon (Homo sapiens) (UniProt Q14164); assay: Inhibition of IKK-epsilon (unknown origin) using fluorescein-labelled DRHDSGLDSMKDE as substrate after 1 hr by TR-FRET assay
T1 sequence (whole entry): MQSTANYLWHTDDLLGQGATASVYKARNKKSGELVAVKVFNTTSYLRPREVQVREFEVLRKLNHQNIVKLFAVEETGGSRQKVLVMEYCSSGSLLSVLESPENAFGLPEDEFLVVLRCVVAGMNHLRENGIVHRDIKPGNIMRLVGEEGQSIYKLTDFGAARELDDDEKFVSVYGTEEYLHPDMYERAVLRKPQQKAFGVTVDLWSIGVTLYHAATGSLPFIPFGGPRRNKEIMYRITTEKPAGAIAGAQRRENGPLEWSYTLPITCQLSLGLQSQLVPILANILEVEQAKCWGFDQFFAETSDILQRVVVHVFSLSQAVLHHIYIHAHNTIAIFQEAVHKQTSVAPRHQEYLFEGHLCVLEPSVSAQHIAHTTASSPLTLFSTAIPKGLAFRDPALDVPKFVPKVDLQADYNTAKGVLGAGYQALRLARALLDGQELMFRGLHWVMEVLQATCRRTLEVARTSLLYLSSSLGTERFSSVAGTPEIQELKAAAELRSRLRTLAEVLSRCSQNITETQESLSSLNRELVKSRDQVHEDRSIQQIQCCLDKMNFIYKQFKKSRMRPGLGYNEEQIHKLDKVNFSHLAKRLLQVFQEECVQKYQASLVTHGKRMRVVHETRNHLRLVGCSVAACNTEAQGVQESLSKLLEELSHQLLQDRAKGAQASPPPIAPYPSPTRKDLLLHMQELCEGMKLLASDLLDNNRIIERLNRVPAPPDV

[2] = target: T2, Serine/threonine-protein kinase TBK1 (Homo sapiens) (UniProt Q9UHD2); assay: Inhibition of TBK1 (unknown origin) using fluorescein-labelled DRHDSGLDSMKDE as substrate after 1 hr by TR-FRET assay
T2 sequence (whole entry): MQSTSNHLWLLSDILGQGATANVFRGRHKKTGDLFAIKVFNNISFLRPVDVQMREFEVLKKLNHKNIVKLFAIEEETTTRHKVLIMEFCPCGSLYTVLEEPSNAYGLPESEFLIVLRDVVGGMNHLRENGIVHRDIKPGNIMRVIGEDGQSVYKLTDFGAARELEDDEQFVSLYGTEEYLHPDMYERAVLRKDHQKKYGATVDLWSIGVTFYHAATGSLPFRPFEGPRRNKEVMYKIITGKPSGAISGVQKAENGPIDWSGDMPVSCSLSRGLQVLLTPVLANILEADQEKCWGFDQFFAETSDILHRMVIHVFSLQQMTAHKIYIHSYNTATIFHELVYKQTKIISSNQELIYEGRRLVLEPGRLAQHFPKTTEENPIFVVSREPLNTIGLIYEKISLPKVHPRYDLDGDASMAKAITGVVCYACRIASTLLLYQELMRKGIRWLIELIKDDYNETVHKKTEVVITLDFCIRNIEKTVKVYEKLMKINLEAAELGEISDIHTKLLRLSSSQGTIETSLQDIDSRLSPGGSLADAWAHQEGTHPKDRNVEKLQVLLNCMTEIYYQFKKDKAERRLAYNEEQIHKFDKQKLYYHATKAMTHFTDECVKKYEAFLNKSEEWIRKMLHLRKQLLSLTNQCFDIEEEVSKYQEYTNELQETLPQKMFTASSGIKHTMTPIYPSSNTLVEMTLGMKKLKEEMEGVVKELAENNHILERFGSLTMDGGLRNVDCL

[3] = target: Serine/threonine-protein kinase SIK2 (Homo sapiens) (UniProt Q9H0K1); assay: Inhibition of human SIK2 using AMARAASAAALARRR as substrate in presence of [gamma33P]ATP by kinase hotspot assay
[4] = Half life in Balb/c mouse at 0.5 mg/kg, iv by mass spectrometry; type: ADME, organism-based; conditions: in vivo
[5] = Volume of distribution in Balb/c mouse at 0.5 mg/kg, iv by mass spectrometry; type: ADME, organism-based; conditions: in vivo

Sequence of Serine/threonine-protein kinase SIK2 (Homo sapiens) (Q9H0K1 whole entry, looked up): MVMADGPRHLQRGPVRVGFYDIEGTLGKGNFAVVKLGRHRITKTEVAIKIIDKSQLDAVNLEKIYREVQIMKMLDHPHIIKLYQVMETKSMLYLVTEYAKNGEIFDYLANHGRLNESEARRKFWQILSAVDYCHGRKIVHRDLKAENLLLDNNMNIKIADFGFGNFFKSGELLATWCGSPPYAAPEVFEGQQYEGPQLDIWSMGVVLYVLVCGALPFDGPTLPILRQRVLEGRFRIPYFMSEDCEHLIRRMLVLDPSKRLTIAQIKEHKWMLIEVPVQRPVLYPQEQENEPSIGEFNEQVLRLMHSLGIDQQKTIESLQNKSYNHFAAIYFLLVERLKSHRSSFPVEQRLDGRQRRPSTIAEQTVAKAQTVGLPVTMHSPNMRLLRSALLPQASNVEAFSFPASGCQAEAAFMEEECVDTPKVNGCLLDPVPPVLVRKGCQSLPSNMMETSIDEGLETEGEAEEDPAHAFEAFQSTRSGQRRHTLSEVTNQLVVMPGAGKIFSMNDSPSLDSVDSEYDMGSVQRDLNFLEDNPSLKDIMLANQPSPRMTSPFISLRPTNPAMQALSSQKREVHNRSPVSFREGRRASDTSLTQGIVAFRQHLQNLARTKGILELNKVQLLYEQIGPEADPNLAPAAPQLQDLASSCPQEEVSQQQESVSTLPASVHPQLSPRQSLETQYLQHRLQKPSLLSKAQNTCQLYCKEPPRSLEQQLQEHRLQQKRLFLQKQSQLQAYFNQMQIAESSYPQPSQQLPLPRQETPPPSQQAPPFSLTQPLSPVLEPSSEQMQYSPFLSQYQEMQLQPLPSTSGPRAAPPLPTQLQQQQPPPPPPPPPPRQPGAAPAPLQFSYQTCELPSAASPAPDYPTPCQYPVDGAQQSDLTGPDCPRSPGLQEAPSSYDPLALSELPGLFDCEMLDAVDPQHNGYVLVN

Row | SMILES | INH [1] | INH [2] | INH [3] | half-life [4] | Vd [5]
1 | CN1CCN(Cc2ccc(Nc3nccc(-c4cnc(N5CC[C@H](F)C5)c(C#N)c4)n3)cn2)CC1 | 24 nM | 17 nM |  |  | 
2 | N#Cc1cc(-c2ccnc(Nc3ccc(CN4CCNC(=O)C4)nc3)n2)cnc1N1CC[C@H](F)C1 | < 15 nM | < 15 nM |  |  | 
3 | CCN1CCN(Cc2ccc(Nc3nccc(-c4cnc(N5CC[C@H](F)C5)c(C#N)c4)n3)cn2)CC1 | 16 nM | 9 nM | 7 nM |  | 
4 | N#Cc1cc(-c2ccnc(Nc3ccc(CN4CCOCC4)nc3)n2)cnc1N1CC[C@H](F)C1 | < 15 nM | < 15 nM |  | 30 min | 0.3 L/kg

The next lines start with the values.

Row | INH [1] | INH [2] | INH [3] | half-life [4] | Vd [5] | SMILES
5 | < 30 nM | < 30 nM |  | 30 min |  | N#Cc1cc(-c2ccnc(Nc3ccc(NC(=O)CN4CCOCC4)nc3)n2)cnc1N1CC[C@H](F)C1
6 | 21 nM | 20 nM |  |  |  | CCN1CCN(Cc2ccc(Nc3nccc(-c4cnc(N5CC[C@@H](F)C5)c(C#N)c4)n3)cn2)CC1
